From patent US10894808B2, “Polypeptide ligands specific for plasma kallikrein” (BicycleRD Limited, priority 2013, dated 2021)
Read-outs that look alike come from different tables or passages of the source. *1 amine or outer side, *2 acyl side, *3 side chain or, on linkers, in order; H or OH if unused. Where a SMILES comes first, the peptide text is derived from it. Bridges are numbered along the chain shown (N, C = ends). [ ]: non-standard residue; d: D form. TBMB = c1c(C[*:1])cc(C[*:3])cc1C[*:2]; hArg = N=C(N)NCCCC[C@H](N)C(=O)O; Aze = O=C(O)[C@@H]1CCN1

What was measured:
[1] = Plasma stability profiling Method #2 (95% plasma, MALDI-TOF), rat plasma; format: in vitro ADME; settings: qualitative, sampled up to 46 hrs
Protocol: (§1) To obtain stability data more rapidly, peptides were also assessed in 95% plasma. Here, PBS was omitted, and a 1-5 mM peptide stock (in DMSO) was directly diluted into plasma (i.e. 2.5 μL stock into 47.5 μL plasma), giving a final concentration of 50 μM. 5 μL samples were taken at appropriate time points and frozen at −80° C. For analysis, the samples were defrosted, mixed with 25 μL of 3:3:1 acetonitrile:methanol:water, and centrifuged at 13 k for 5 min. 5 μL of the peptide-containing supernatant was aspirated and mixed with 30 mM ammonium bicarbonate in a 1:1 mixture of acetonitrile:H2O. 1 μL of this was then spotted on the MALDI plate and analysed as described above. As above, it should be noted that this is a qualitative assay serves to detect relative changes in plasma stability.

[2] = Plasma stability profiling Method #2 (95% plasma, MALDI-TOF), human plasma; format: in vitro ADME; settings: qualitative, sampled up to 46 hrs
Protocol: as §1

[3] = target: T1, biotinylated human plasma kallikrein (Homo sapiens, UniProt P03952); assay: Homogeneous plate-based screening assay of TBMB-cyclised phage clones (signal:background); format: binding
T1 construct: The human kallikrein is non-recombinant and therefore the heavy chain is present; purchased Innovative Research, Novi, Mich., USA IHPKA; host or cells: from human plasma
T1 sequence (P03952 391-638 limits assumed): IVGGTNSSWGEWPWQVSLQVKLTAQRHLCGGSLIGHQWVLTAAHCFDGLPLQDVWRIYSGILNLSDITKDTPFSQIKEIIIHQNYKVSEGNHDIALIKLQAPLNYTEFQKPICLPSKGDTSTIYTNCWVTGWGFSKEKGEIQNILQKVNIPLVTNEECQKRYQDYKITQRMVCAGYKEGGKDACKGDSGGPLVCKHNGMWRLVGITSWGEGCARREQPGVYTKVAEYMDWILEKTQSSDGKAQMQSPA
T1 sequence (P03952 20-390 partner limits assumed): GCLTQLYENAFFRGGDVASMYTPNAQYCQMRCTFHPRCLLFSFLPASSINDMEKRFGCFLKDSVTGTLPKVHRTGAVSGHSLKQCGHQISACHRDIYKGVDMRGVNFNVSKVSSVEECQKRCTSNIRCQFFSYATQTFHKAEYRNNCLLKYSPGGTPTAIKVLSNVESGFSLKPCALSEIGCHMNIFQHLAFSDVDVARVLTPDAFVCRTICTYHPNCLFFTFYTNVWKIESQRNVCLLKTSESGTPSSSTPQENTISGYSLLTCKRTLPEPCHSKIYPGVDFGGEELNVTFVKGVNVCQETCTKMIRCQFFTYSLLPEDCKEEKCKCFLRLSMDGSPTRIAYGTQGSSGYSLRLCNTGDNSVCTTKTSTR
Protocol: Assay of binding of individual clones: Library transformant colonies were picked at random and grown as individual cultures in 2TY broth containing selective antibiotic. The picked colonies were DNA-sequenced using a QIAgen PyroMark Q96 DNA sequencer to reveal the amino-acid substitution present in each clone. Where isolated, a clone of each unique substitution was assayed for human plasma kallikrein binding as follows. The phage-containing supernatant was harvested from the culture and phage were cyclised with tris bromomethyl benzene (TBMB) based on the methods of Heinis et al (Nature Chemical Biology vol. 5 pp 502-507 (2009)). The purified phage from this process were assayed for binding to biotinylated human plasma kallikrein using a homogeneous plate-based binding assay; assay read-out measured on a BMG Labtech Pherastar FS plate reader. The quantitative binding data from triplicate assay samples was averaged (mean) and expressed as signal:background (where background was a sample assayed with no target material). The signal:background was expressed as a % of the parallel parent sample. Error bars denote standard deviation of the mean. Assays shown are representative of at least 2 independent experiments. The assay data was correlated with the peptide sequences. Substitutions marked in grey were not tested (a clone was not isolated from the random library sampling). A sample of a non-binding (arbitrary) bicycle was assayed in parallel to illustrate the assay baseline.
Assay of binding of individual clones: Library transformant colonies, or selection output colonies, were picked and grown as individual cultures in 2TY broth containing selective antibiotic. The picked colonies were DNA-sequenced using a QIAgen PyroMark Q96 DNA sequencer to reveal the amino-acid substitution present in each clone, and were assayed for human plasma kallikrein binding as follows. The phage-containing supernatant was harvested from the culture and phage were cyclised with tris-bromomethylbenzene (TBMB) based on the methods of Heinis et al (Nature Chemical Biology vol. 5 pp 502-507 (2009)). The purified phage from this process were assayed for binding to biotinylated human plasma kallikrein using a homogeneous plate-based binding assay; assay read-out measured on a BMG Labtech Pherastar FS plate reader. The quantitative binding data from duplicate assay samples was averaged (mean) and expressed as signal:background. Assay data shown is representative of at least 2 independent experiments. The assay data was correlated with the peptide sequences.

rat plasma kallikrein = target: T2, rat plasma kallikrein (Rattus norvegicus, UniProt P14272); assay: Functional enzyme assay, inhibition of rat plasma kallikrein (Z-PheArg-AMC substrate); format: biochemical
T2 construct: polyhistidine tag followed by proTEV cleavage site (pro-peptide) (N, cleaved yes); made in house; host or cells: HEK-293 (suspension-adapted), pEXPR-IBA42 vector
T2 sequence (P14272 391-638 limits assumed): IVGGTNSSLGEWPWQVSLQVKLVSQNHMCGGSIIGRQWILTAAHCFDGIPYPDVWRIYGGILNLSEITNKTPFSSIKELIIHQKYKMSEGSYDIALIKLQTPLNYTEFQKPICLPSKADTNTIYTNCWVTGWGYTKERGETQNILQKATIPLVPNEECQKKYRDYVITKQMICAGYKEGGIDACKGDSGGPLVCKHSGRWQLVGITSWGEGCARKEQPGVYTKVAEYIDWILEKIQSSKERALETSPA
Protocol: (§2) Functional enzyme assays were conducted in 10 mM Tris HCl, 150 mM NaCl, 10 mM MgCl2, 1 mM CaCl2 and 1 mg/mL BSA (all Sigma UK) pH 7.4 at 25° C. in solid black 96 or 384 well plates. […] Release of AMC was measured using a Pherastar FS (BMG Labtech), excitation 360 nm, emission 460 nm. The rate of the linear phase of the reaction, typically 5 to 45 minutes, was calculated in MARS data analysis software (BMG labtech). The rate was then used to calculate the IC50 and Ki in Prism (GraphPad). A four parameter inhibition non-linear regression equation was used to calculate the IC50. […]
(§3) Peptides were dissolved as the TFA-salts in their powder form, and stock solutions were usually prepared in water. All solutions were centrifuged and filtered ([…] syringe filters) prior to absorption measurement at 280 nm. Extinction coefficients were calculated based on the Trp/Tyr content of the peptide, and that of TMB (the TMB core, when contained in a peptide, has an extinction coefficient of ˜300 M^−1 cm^−1).

rabbit kallikrein = rabbit kallikrein (Oryctolagus cuniculus, UniProt G1T127); assay: Functional enzyme assay, inhibition of rabbit kallikrein; format: biochemical; settings: read-out: Rabbit (Ki)
rabbit kallikrein, sequence (G1T127 20-629): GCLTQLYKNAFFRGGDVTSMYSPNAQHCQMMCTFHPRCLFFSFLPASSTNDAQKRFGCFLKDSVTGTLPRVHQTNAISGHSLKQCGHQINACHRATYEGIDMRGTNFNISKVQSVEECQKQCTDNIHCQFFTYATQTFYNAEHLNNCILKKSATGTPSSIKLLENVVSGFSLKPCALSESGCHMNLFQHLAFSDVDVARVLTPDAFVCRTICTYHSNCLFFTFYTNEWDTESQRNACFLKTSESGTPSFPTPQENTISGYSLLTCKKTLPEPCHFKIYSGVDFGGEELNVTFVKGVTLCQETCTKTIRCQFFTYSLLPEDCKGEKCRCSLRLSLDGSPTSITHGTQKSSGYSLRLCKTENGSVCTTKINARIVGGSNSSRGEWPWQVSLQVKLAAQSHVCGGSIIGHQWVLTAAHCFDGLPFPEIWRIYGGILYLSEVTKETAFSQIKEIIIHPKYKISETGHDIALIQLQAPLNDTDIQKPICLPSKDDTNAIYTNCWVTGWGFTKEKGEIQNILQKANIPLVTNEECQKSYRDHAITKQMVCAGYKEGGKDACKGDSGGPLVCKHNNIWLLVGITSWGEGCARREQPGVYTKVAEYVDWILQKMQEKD
Protocol: as §2, §3

human plasma kallikrein = target: T3, human plasma kallikrein (Homo sapiens, UniProt P03952); assay: Functional enzyme assay, inhibition of human plasma kallikrein (Z-PheArg-AMC substrate); format: biochemical
T3 construct: purchased Stratech, UK
T3 sequence (P03952 391-638 limits assumed): as the sequence (P03952 391-638 limits assumed) above
T3 sequence (P03952 20-390 partner limits assumed): as the sequence (P03952 20-390 partner limits assumed) above
Protocol: as §2, §3

[4] = Aqueous solubility (qualitative); format: physicochemical; settings: in words
[5] = Table 3, 06-254 affinity-matured library
[6] = Table 1, synthetic peptides, read-out: Rat (Ki)
[7] = Table 1, synthetic peptides, read-out: Human (Ki)
[8] = Table 4, 06-259 affinity-matured library

| Ki (rat plasma kallikrein; [6]) | Ki (rabbit kallikrein; Table 1, synthetic peptides) | Ki (rabbit kallikrein; Table 5) | Ki (human plasma kallikrein; [7]) | S:B (Signal:Background) [3, 8] | SMILES | further results |
| --- | --- | --- | --- | --- | --- | --- |
|  |  |  |  |  | CC(C)C[C@@H]1NC(=O)[C@H](CC(=O)O)NC(=O)[C@H](CCC(N)=O)NC(=O)[C@H](Cc2c[nH]cn2)NC(=O)[C@H](CC(C)C)NC(=O)[C@@H]2CSCc3cc(cc(c3)CSC[C@H](N)C(=O)N[C@@H](CO)C(=O)N[C@@H](Cc3c[nH]c4ccccc34)C(=O)N3CCC[C@H]3C(=O)N[C@@H](C)C(=O)N[C@@H](CCCNC(=N)N)C(=O)N2)CSC[C@@H](C(N)=O)NC1=O [06-34-18, reference compound] (H-CSWPARCLHQDLC-NH2; linker 1-7-13 via TBMB; N-terminus and C-terminus assumed) | comparative stability in rat plasma [1]: largely disappeared; comparative stability in human plasma [2]: largely disappeared |
| 42.5 nM | 280 nM | 280 nM | 5.3 nM |  | CC[C@H](C)[C@@H]1NC(=O)[C@H]([C@@H](C)O)NC(=O)[C@H](C(C)C)NC(=O)[C@H](CC(C)C)NC(=O)[C@H](CC(=O)O)NC(=O)[C@@H]2CSCc3cc(cc(c3)CSC[C@@H](C(=O)N[C@@H](C)C(N)=O)NC(=O)[C@H](CO)NC1=O)CSC[C@H](NC(=O)[C@H](C)N)C(=O)N[C@@H](CCCCN)C(=O)N[C@@H](CC(N)=O)C(=O)N[C@@H](Cc1ccc(O)cc1)C(=O)N[C@@H](Cc1c[nH]c3ccccc13)C(=O)N[C@@H](CC(N)=O)C(=O)N1CCC[C@H]1C(=O)N2 [06-254] (H-ACKNYWNPCDLVTISCA-NH2; linker 2-9-16 via TBMB; N-terminus assumed) | S:B (Signal:Background) [3, 5]: 23.48 |
| 5.2 nM | 331 nM | 331 nM | 4.3 nM |  | CC(C)C[C@@H]1NC(=O)[C@H](CC(N)=O)NC(=O)[C@H](CCC(=O)O)NC(=O)[C@H](Cc2c[nH]cn2)NC(=O)[C@H](CC(C)C)NC(=O)[C@@H]2CSCc3cc(cc(c3)CSC[C@H](NC(=O)[C@H](C)N)C(=O)N3CCC[C@H]3C(=O)N[C@@H](Cc3ccc(O)cc3)C(=O)N3CCC[C@H]3C(=O)N[C@@H](Cc3ccccc3)C(=O)N[C@@H](CCCNC(=N)N)C(=O)N2)CSC[C@@H](C(=O)N[C@@H](C)C(N)=O)NC1=O [06-258] (H-ACPYPFRCLHENLCA-NH2; linker 2-8-14 via TBMB; N-terminus and C-terminus assumed) |  |
|  |  |  |  | 49.82 | CC[C@H](C)[C@@H]1NC(=O)[C@@H]2CCCN2C(=O)[C@@H]2CCCN2C(=O)[C@H](CC(=O)O)NC(=O)[C@H](C)NC(=O)[C@H](CO)NC(=O)[C@@H]2CSCc3cc(cc(c3)CSC[C@@H](C(=O)N[C@@H](C)C(N)=O)NC1=O)CSC[C@H](NC(=O)[C@H](C)N)C(=O)N[C@@H](CC(N)=O)C(=O)N[C@@H](Cc1c[nH]cn1)C(=O)N[C@@H](Cc1c[nH]c3ccccc13)C(=O)N[C@@H](CC(N)=O)C(=O)N1CCC[C@H]1C(=O)N[C@@H](Cc1c[nH]c3ccccc13)C(=O)N2 [06-259-03] (H-ACNHWNPWCSADPPICA-NH2; linker 2-9-16 via TBMB; N-terminus and C-terminus assumed) | Ki (rat plasma kallikrein; Table 5, read-out: Rat (Ki)): 8.2 nM; Ki (human plasma kallikrein; Table 5, read-out: Human (Ki)): 1.4 nM |
| 6.2 nM |  |  | 20.1 nM | 1.17 | CC(C)[C@@H]1NC(=O)[C@H](Cc2c[nH]c3ccccc23)NC(=O)CNC(=O)[C@@H]2CSCc3cc(cc(c3)CSC[C@@H](C(=O)N[C@@H](C)C(N)=O)NC(=O)[C@H](Cc3ccccc3)NC(=O)CNC(=O)CNC1=O)CSC[C@H](NC(=O)[C@H](C)N)C(=O)N[C@@H](CC(N)=O)C(=O)N[C@@H]([C@@H](C)O)C(=O)N[C@@H](Cc1c[nH]c3ccccc13)C(=O)N[C@@H](CC(N)=O)C(=O)N1CCC[C@H]1C(=O)N[C@@H](Cc1c[nH]c3ccccc13)C(=O)N2 [06-259] (H-ACNTWNPWCGWVGGFCA-NH2; linker 2-9-16 via TBMB; N-terminus and C-terminus assumed) |  |
| 4 nM | 1040 nM | 1040 nM | 0.4 nM |  | CC[C@H](C)[C@@H]1NC(=O)[C@H](CC(=O)O)NC(=O)[C@@H]2CCCN2C(=O)[C@H](Cc2ccc(O)cc2)NC(=O)[C@H](Cc2ccc(O)cc2)NC(=O)[C@H](C(C)C)NC(=O)[C@@H]2CSCc3cc(cc(c3)CSC[C@@H](C(=O)N[C@@H](C)C(N)=O)NC1=O)CSC[C@H](NC(=O)[C@H](C)N)C(=O)N[C@@H](CC(N)=O)C(=O)N[C@@H](CC(N)=O)C(=O)N[C@@H](Cc1ccccc1)C(=O)N1CCC[C@H]1C(=O)N[C@@H](Cc1ccccc1)C(=O)N[C@@H](CCCNC(=N)N)C(=O)N2 [06-261] (H-ACNNFPFRCVYYPDICA-NH2; linker 2-9-16 via TBMB; N-terminus assumed) |  |
|  |  |  |  |  | CC[C@H](C)[C@@H]1NC(=O)[C@H](CC(=O)O)NC(=O)[C@@H]2CCCN2C(=O)[C@H](Cc2ccc(O)cc2)NC(=O)[C@H](Cc2ccc(O)cc2)NC(=O)[C@H](C(C)C)NC(=O)[C@@H]2CSCc3cc(cc(c3)CSC[C@H](N)C(=O)N[C@@H](CO)C(=O)N[C@@H](Cc3ccccc3)C(=O)N3CC[C@H]3C(=O)N[C@@H](Cc3ccc(O)cc3)C(=O)N[C@@H](CCCCNC(=N)N)C(=O)N2)CSC[C@@H](C(N)=O)NC1=O [06-550 Aze3 HArg5, -Ci-S-F-[Aze]-Y-[hR]-Cii-V-Y-Y-P-D-I-Ciii-] (H-CSF[Aze]Y[hArg]CVYYPDIC-NH2; linker 1-7-14 via TBMB; N-terminus and C-terminus assumed) | aqueous solubility [4]: significantly reduced aqueous solubility |
|  |  |  |  | 14.05 | CC(C)C[C@@H]1NC(=O)[C@H](C)NC(=O)[C@H](CCC(=O)O)NC(=O)[C@H](CC(=O)O)NC(=O)[C@H](C)NC(=O)[C@@H]2CCCN2C(=O)[C@@H]2CSCc3cc(cc(c3)CSC[C@@H](C(=O)NCC(N)=O)NC1=O)CSC[C@H](NC(=O)[C@H](C)N)C(=O)N[C@@H](CO)C(=O)N[C@@H](CC(=O)O)C(=O)N[C@@H](CCCNC(=N)N)C(=O)N[C@@H](Cc1ccccc1)C(=O)N[C@@H](CCCNC(=N)N)C(=O)N[C@@H](CC(N)=O)C(=O)N2 [PK15, reference compound] (H-ACSDRFRNCPADEALCG-NH2; linker 2-9-16 via TBMB (inferred); N-terminus and C-terminus assumed) | S:B (Signal:Background) [3, 5]: 14.05; Ki (rat plasma kallikrein; text b212, read-out: Ki to rat kallikrein): ~500 nM; Ki (human plasma kallikrein; text b212, read-out: Ki to human kallikrein): ~1.2 nM |
